Earlier results on 2 compounds are cited in article PMC11359394 (Pharmaceutics, 2024).

On the set-up of data set [1]: method as in US FDA GRAS Notices. As to conditions: rats, dietary consumption; ref US FDA GRAS Notices.
Data set [2] has as its system CYP2C8 and CYP3A4 isoenzymes.

SMILES strings stand for the structures.

As for `C=C1C[C@@]23CC[C@H]4[C@@](C)(CCC[C@@]4(C)C(=O)O[C@@H]4O[C@H](CO)[C@@H](O)[C@H](O)[C@H]4O)[C@@H]2CC[C@]1(O[C@@H]1O[C@H](CO)[C@@H](O)[C@H](O)[C@H]1O)C3` [RUB, Rubusoside], in data set [1], the “dietary dose with no adverse effects” value is “up to 2 g/kg”. Turning to `CC(=O)O[C@H]1C(=O)[C@@]2(C)[C@H]([C@H](OC(=O)c3ccccc3)[C@]3(O)C[C@H](OC(=O)[C@H](O)[C@@H](NC(=O)c4ccccc4)c4ccccc4)C(C)=C1C3(C)C)[C@]1(OC(C)=O)CO[C@@H]1C[C@@H]2O` [Paclitaxel], the “solubility increase by exploiting the polymorphs” value is 60 fold. For the same compound, the “fraction metabolized in the liver by CYP P450” value in data set [2] is reported as “Approximately 90%”.
